Reference: patent US20260217765A1, “NOVEL ANTIMICROBIAL PEPTIDE DESIGNED FROM DUCK-DERIVED ANTIMICROBIAL PEPTIDE ANDUSE THEREOF” (INDUSTRY-ACADEMIC COOPERATION FOUNDATION, CHOSUN UNIVERSITY, priority 2023, published 2026)
In brackets after ≈: the same amount, converted by molar mass. Peptide text beside a SMILES is read from it.

Experiments:
[1] = tested on: Acinetobacter baumannii_isolate 12 (antibiotic-resistant); type: cell-based, Acinetobacter baumannii; settings: isolate 12 (antibiotic-resistant)
Description: (§1) To compare the antimicrobial activity of the peptides prepared in <Example 1>, the minimum inhibitory concentration (MIC), […] measured. Here, the minimal inhibitory concentration (MIC) refers to the lowest concentration of a substance that prevents visible bacterial growth.
(§2) Specifically, the bacterial strains listed in Table 2 below were obtained and cultured in media suitable for each strain until the mid-log phase. The cultures were then diluted to a concentration of 2×10^4 cells/100 μL and prepared in microtiter plates (Nunc, USA). Subsequently, serial 2-fold dilutions of the peptides prepared in Example 1 were prepared, and 10 μL of each dilution was added to the wells, and the plates were incubated at 37° C. for 18 hours. Absorbance at 600 nm was measured using a microtiter plate reader (Merck ELISA reader, Germany) to determine the MIC values for each bacterial strain. The parent peptide dCATH was used as a control.

[2] = tested on: Acinetobacter baumannii_isolate 17 (antibiotic-resistant); type: cell-based, Acinetobacter baumannii; settings: isolate 17 (antibiotic-resistant)
Description: as §1, §2

[3] = tested on: Acinetobacter baumannii_isolate 24 (antibiotic-resistant); type: cell-based, Acinetobacter baumannii; settings: isolate 24 (antibiotic-resistant)
Description: as §1, §2

[4] = tested on: Acinetobacter baumannii_isolate 9 (antibiotic-resistant); type: cell-based, Acinetobacter baumannii; settings: isolate 9 (antibiotic-resistant)
Description: as §1, §2

[5] = tested on: Acinetobacter baumannii_isolate21 (antibiotic-resistant); type: cell-based, Acinetobacter baumannii; settings: isolate21 (antibiotic-resistant)
Description: as §1, §2

[6] = tested on: Acinetobacter baumannii_isolate 13 (antibiotic-resistant); type: cell-based, Acinetobacter baumannii; settings: isolate 13 (antibiotic-resistant)
Description: as §1, §2

[7] = tested on: Acinetobacter baumannii_isolate 2 (antibiotic-resistant); type: cell-based, Acinetobacter baumannii; settings: isolate 2 (antibiotic-resistant)
Description: as §1, §2

[8] = tested on: Acinetobacter baumannii_isolate 3 (antibiotic-resistant); type: cell-based, Acinetobacter baumannii; settings: isolate 3 (antibiotic-resistant)
Description: as §1, §2

[9] = tested on: Acinetobacter baumannii_isolate15 (antibiotic-resistant); type: cell-based, Acinetobacter baumannii; settings: isolate15 (antibiotic-resistant)
Description: as §1, §2

[10] = tested on: Acinetobacter baumannii_isolate 6 (antibiotic-resistant); type: cell-based, Acinetobacter baumannii; settings: isolate 6 (antibiotic-resistant)
Description: as §1, §2

[11] = tested on: Acinetobacter baumannii_isolate 7 (antibiotic-resistant); type: cell-based, Acinetobacter baumannii; settings: isolate 7 (antibiotic-resistant)
Description: as §1, §2

[12] = tested on: Acinetobacter baumannii_isolate 5 (antibiotic-resistant); type: cell-based, Acinetobacter baumannii; settings: isolate 5 (antibiotic-resistant)
Description: as §1, §2

[13] = tested on: Acinetobacter baumannii_isolate 14 (antibiotic-resistant); type: cell-based, Acinetobacter baumannii; settings: isolate 14 (antibiotic-resistant)
Description: as §1, §2

[14] = tested on: Acinetobacter baumannii_isolate 18 (antibiotic-resistant); type: cell-based, Acinetobacter baumannii; settings: isolate 18 (antibiotic-resistant)
Description: as §1, §2

[15] = tested on: Acinetobacter baumannii KCTC 2508; type: cell-based; settings: KCTC 2508, 24 h
Protocol: Specifically, among the bacterial strains listed in Table 2, those known to form biofilms well (Acinetobacter baumannii KCTC 2508, Acinetobacter baumannii isolate 10, and isolate 14) were cultured in the appropriate media to the mid-log phase and diluted to a cell concentration of 5×10^4 cells/100 µL, followed by inoculation into microplates (SPL). Subsequently, the peptides prepared in <Example 1> were serially 10-fold diluted with 10 mM sodium phosphate buffer (pH 7.2), and 10 μL of each dilution was added to each well. The plates were then incubated at 37° C. for 24 hours. After completely removing the supernatant, the plates were fixed with 100% methanol for 15 minutes, stained with crystal violet staining solution for 1 hour, washed three times, and then the stain was solubilized with 95% ethanol. Absorbance was measured at 595 nm using a microplate reader to determine the MBIC values for each bacterial strain.

[16] = tested on: Bacillus cereus KCTC 2508; type: cell-based
Description: as §1, §2

[17] = tested on: Staphylococcus aureus ATCC 25923; type: cell-based; settings: ATCC 25923
Description: as §1, §2

[18] = tested on: Escherichia coli ATCC 25922; type: cell-based
Description: as §1, §2

[19] = tested on: Pseudomonas aeruginosa ATCC 27853; type: cell-based
Description: as §1, §2

[20] = tested on: Acinetobacter baumannii KCTC 1017; type: cell-based; settings: KCTC 1017
Description: as §1, §2

[21] = tested on: Listeria monocytogenes KCTC 3710; type: cell-based
Description: as §1, §2

[22] = in vitro; type: cell-based; settings: human, HaCaT keratinocyte cells, Cell Viability
Protocol: To evaluate the cytotoxicity of the peptides prepared in <Example 1>, toxicity was measured using a human keratinocyte cell line (HaCaT cell line, Dr. N. E. Fusenig, Heidelberg, Germany).
Specifically, HaCaT cells cultured in DMEM medium containing 10% fetal bovine serum (FBS) were seeded at a density of 2×10^5 cells/well into a microtiter plate and incubated for 24 hours. Then, peptides dCATH, dCATH-A1, dCATH-A2, dCATH-A3, dCATH-A4, dCATH-A5, dCATH-A6, and dCATH-A7 were added to each well at concentrations of 3.13, 6.25, 12.5, 25.0, 50.0, and 100.0 μM/well, followed by incubation for 24 hours in a 5% CO2 incubator. After 24 hours, 100 μL of a reaction solution containing 0.5 mg/mL MTT (Thiazolyl Blue Tetrazolium Bromide) dissolved in phosphate-buffered saline (PBS) was added to each well and reacted for 4 hours. After removing the supernatant, 200 μL of DMSO (dimethyl sulfoxide) was added to dissolve the formed MTT crystals, and absorbance at 570 nm was measured to determine cell viability.

SMILES: CC[C@H](C)[C@H](NC(=O)[C@H](C)NC(=O)[C@H](CC(C)C)NC(=O)[C@@H]1CCCN1C(=O)[C@@H](NC(=O)[C@H](CC(C)C)NC(=O)[C@H](CCC(N)=O)NC(=O)[C@H](Cc1c[nH]c2ccccc12)NC(=O)[C@H](Cc1ccccc1)NC(=O)[C@H](CCCNC(=N)N)NC(=O)[C@@H](N)CCCCN)C(C)C)C(=O)N[C@@H](CCCCN)C(=O)N[C@H](C(=O)N[C@@H](Cc1ccc(O)cc1)C(=O)N[C@@H](CCCNC(=N)N)C(=O)N[C@@H](C)C(=O)N[C@@H](Cc1c[nH]c2ccccc12)C(=O)N[C@@H](CCCCN)C(=O)N[C@@H](CCCNC(=N)N)C(=O)N[C@@H](CCCNC(=N)N)C(N)=O)[C@@H](C)CC [dCATH, reference compound] (H-KRFWQLVPLAIKIYRAWKRR-NH2; N-terminus assumed)
- MIC [1]: 2 µM (≈ 5.26 µg/mL)
- MIC [2]: 2 µM (≈ 5.26 µg/mL)
- MIC [3]: 4 µM (≈ 10.5 µg/mL)
- MIC [4]: 2 µM (≈ 5.26 µg/mL)
- MIC [5]: 2 µM (≈ 5.26 µg/mL)
- MIC [6]: 2 µM (≈ 5.26 µg/mL)
- MIC [7]: 2 µM (≈ 5.26 µg/mL)
- MIC [8]: 2 µM (≈ 5.26 µg/mL)
- MIC [9]: 2 µM (≈ 5.26 µg/mL)
- MIC [10]: 4 µM (≈ 10.5 µg/mL)
- MIC [11]: 4 µM (≈ 10.5 µg/mL)
- MIC [12]: 2 µM (≈ 5.26 µg/mL)
- MIC [13]: 2 µM (≈ 5.26 µg/mL)
- MIC [14]: 2 µM (≈ 5.26 µg/mL)
- MBIC [15]: 4 µM
- MIC [16]: 1 µM (≈ 2.63 µg/mL)
- MIC [17]: 2 µM (≈ 5.26 µg/mL)
- MIC [18]: 2 µM (≈ 5.26 µg/mL)
- MIC [19]: 2 µM (≈ 5.26 µg/mL)
- MIC [20]: 2 µM (≈ 5.26 µg/mL)
- MIC [21]: 2 µM (≈ 5.26 µg/mL)
- viability at 24 h, 3.13 µM [22]: 100%
- viability at 24 h, 6.25 µM [22]: 100%
- viability at 24 h, 12.5 µM [22]: 75.3%
- viability at 24 h, 25 µM [22]: 11.6%
- viability at 24 h, 50 µM [22]: 2.51%

SMILES: CC[C@H](C)[C@H](NC(=O)[C@H](C)NC(=O)[C@H](CC(C)C)NC(=O)[C@@H]1CCCN1C(=O)[C@@H](NC(=O)[C@H](CC(C)C)NC(=O)[C@H](CCC(N)=O)NC(=O)[C@H](Cc1c[nH]c2ccccc12)NC(=O)[C@H](C)NC(=O)[C@H](CCCNC(=N)N)NC(=O)[C@@H](N)CCCCN)C(C)C)C(=O)N[C@@H](CCCCN)C(=O)N[C@H](C(=O)N[C@@H](Cc1ccc(O)cc1)C(=O)N[C@@H](CCCNC(=N)N)C(=O)N[C@@H](C)C(=O)N[C@@H](Cc1c[nH]c2ccccc12)C(=O)N[C@@H](CCCCN)C(=O)N[C@@H](CCCNC(=N)N)C(=O)N[C@@H](CCCNC(=N)N)C(N)=O)[C@@H](C)CC [dCATH-A1] (H-KRAWQLVPLAIKIYRAWKRR-NH2; N-terminus assumed)
- MIC [1]: 2 µM (≈ 5.1 µg/mL)
- MIC [2]: 1 µM (≈ 2.55 µg/mL)
- MIC [3]: 2 µM (≈ 5.1 µg/mL)
- MIC [4]: 2 µM (≈ 5.1 µg/mL)
- MIC [5]: 2 µM (≈ 5.1 µg/mL)
- MIC [6]: 2 µM (≈ 5.1 µg/mL)
- MIC [7]: 2 µM (≈ 5.1 µg/mL)
- MIC [8]: 2 µM (≈ 5.1 µg/mL)
- MIC [9]: 2 µM (≈ 5.1 µg/mL)
- MIC [10]: 2 µM (≈ 5.1 µg/mL)
- MIC [11]: 2 µM (≈ 5.1 µg/mL)
- MIC [12]: 2 µM (≈ 5.1 µg/mL)
- MIC [13]: 2 µM (≈ 5.1 µg/mL)
- MIC [14]: 2 µM (≈ 5.1 µg/mL)
- MBIC [15]: 4 µM
- MIC [16]: 2 µM (≈ 5.1 µg/mL)
- MIC [17]: 2 µM (≈ 5.1 µg/mL)
- MIC [18]: 2 µM (≈ 5.1 µg/mL)
- MIC [19]: 4 µM (≈ 10.2 µg/mL)
- MIC [20]: 2 µM (≈ 5.1 µg/mL)
- MIC [21]: 2 µM (≈ 5.1 µg/mL)
- viability at 24 h, 3.13 µM [22]: 100%
- viability at 24 h, 6.25 µM [22]: 100%
- viability at 24 h, 12.5 µM [22]: 97.9%
- viability at 24 h, 25 µM [22]: 30%
- viability at 24 h, 50 µM [22]: 0.81%
- viability at 24 h, 100 µM [22]: 1.79%
